Experimental data from article PMC8147781, “Discovery of Pyrrolidine-2,3-diones as Novel Inhibitors of P. aeruginosa PBP3” (Antibiotics, 2021).
≈ marks a conversion by molar mass, not a printed value. Where “and” joins values, the source holds several entries; their conditions need not be identical. Equal values may be shown once. Read-outs that look alike come from different tables or passages of the source.

Legend:
[1] = biological target: T1, PBP3 of P. aeruginosa (PaPBP3) (Pseudomonas aeruginosa, UniProt G3XD46); assay: FP-Bocillin FL competition assay; format: binding; details: 30 min preincubation before Bocillin FL, 37 °C; read-out: IC50 Determination with PaPBP3, FP-Bocillin FL Assay
T1 construct: P. aeruginosa PBP3 (amino acids 40 to 563); His-tag; made in house; host or cells: E. coli BL21 (DE3) Rosetta, plasmid pET41_PBP-3
Protocol: Bocillin FL is a fluorescent penicillin V derivate used as a competitor for PBP inhibitors.
Fluorescence polarisation (FP) experiments were carried out as described before. To determine the binding of Bocillin FL to PBP, 200 nM of ^PaPBP3 was incubated for 30 min with 100 nM of Bocillin FL (Thermo Fisher Scientific, Waltham, MA, USA). The fluorescence polarisation signal of free Bocillin FL was monitored in a Pherastar microplate reader (BMG Labtech, Ortenberg, Germany) in the polarisation mode with Ex/Em: 485/520 nm excitation and emission filters. Millipolarisation (mP) units were calculated using the MARS data analysis software v30.40.R2 (BMG Labtech, Ortenberg, Germany). All the experiments were done in Sorensen buffer at 37 °C using flat-bottom, black 96-well plates. […] Bocillin FL was diluted in Sorensen buffer and added to the reaction and directly measured for 30 min at 37 °C. The FP was continuously measured in the presence and absence of compound and enzyme. […] The estimated IC50 values were established by sigmoidal nonlinear regression, using Prims v.8 software.

[2] = tested on: P. aeruginosa K2896 ΔmexBΔmexXYΔmexCD-oprJ; assay: MIC broth microdilution, P. aeruginosa K2896 efflux mutant; format: cell-based, Pseudomonas aeruginosa; details: ΔmexB; ΔmexX, ΔmexCD-oprJ, with 4 µg/mL PMBN
Text: (§1) The results presented above implied that seven pyrrolidine-2,3-dione derivatives inhibited the activity of ^PaPBP3 in vitro. Consequently, we were very interested in investigating the potential of these compounds to affect the growth of P. aeruginosa. Two P. aeruginosa bacterial strains (the wild-type PAO1 and the isogenic ΔmexB ΔmexX ΔmexCD-oprJ efflux pump mutant) were used to determine the MIC and the potential role of the main P. aeruginosa efflux systems in compound uptake. To increase the antibacterial sensitivity of the tested P. aeruginosa isolates to the potential inhibitors, we performed MIC experiments in the presence and absence of a sub-MIC concentration (4 µg/mL) of the outer membrane permeabilising polymyxin B nonapeptide (PMBN). […] Thus, we concluded that the physicochemical properties of the pyrrolidine-2,3-dione compounds were perhaps not yet favourable enough to cross the P. aeruginosa cell envelope without a permeabiliser because of their high hydrophobicity.
(§2) The wild-type P.aeruginosa PAO1 and the isogenic P. aeruginosa K2896 ΔmexBΔmexXYΔmexCD-oprJ isolates were used to determine the MIC in the presence and absence of PMBN [48].
(§3) MIC determination was performed via standard broth microdilution according to the Clinical & Laboratory Standards institute guidelines. Overnight colonies grown on BD-Columbia agar with 5% Sheep Blood (Becton Dickinson, Franklin Lakes, NJ, USA), were diluted in Mueller Hinton Broth 2 cation adjusted (MH+) medium (Thermo Fisher Scientific) to a concentration of 5 × 10^5 CFU/mL. Serial dilutions (1:2) of test compounds were incubated at 37 °C with 5 × 10^4 bacteria in a final volume of 100 μL. Sterile and growth controls in the presence of 1% DMSO and PMBN if the case, and the positive controls, aztreonam (AZT) and tigecycline (TIG) were included in the experiments (Table S4). The MICs were determined visually after 18 h at 37 °C and confirmed by the addition of 10% PrestoBlue (ThermoFisher Scientific) reagent according to the manufacture’s protocol. The fluorescence signal of PrestoBlue reagent was measured at Ex/Em: 550/595 nm after 30 min incubation at 37 °C using at a ClarioStar microplate reader (BMG Labtech). PrestoBlue reduction occurs in the presence of living cells and consequently turns red in colour and is highly fluorescent.

[3] = tested on: K. pneumoniae clinical isolate; assay: MIC broth microdilution, K. pneumoniae; format: cell-based; details: Klebsiella pneumoniae; Table S3
Protocol: as §3

[4] = tested on: A. baumannii ATCC15308; assay: MIC broth microdilution, A. baumannii; format: cell-based; details: 10 µg/mL PMBN
Protocol: as §3

[5] = tested on: S. pneumoniae; assay: MIC broth microdilution, S. pneumoniae; format: cell-based; details: Streptococcus pneumoniae, read-out: MIC (µM) S. pneumoniae
Protocol: as §3

[6] = tested on: P. aeruginosa PAO1 (wild-type strain); assay: MIC broth microdilution, P. aeruginosa PAO1; format: cell-based, Pseudomonas aeruginosa; details: wild-type strain, with 4 µg/mL PMBN
Text: as §1, §2, §3

[7] = biological target: T2, PaPBP3 coated on a CM5 chip (Pseudomonas aeruginosa, UniProt G3XD46); assay: Surface plasmon resonance (SPR), steady-state analysis; format: binding; details: 25 °C
T2 construct: P. aeruginosa PBP3 (amino acids 40 to 563); His-tag; made in house; host or cells: E. coli BL21 (DE3) Rosetta, plasmid pET41_PBP-3
Protocol: Next, we confirmed the binding of the best inhibitors (analogues 34, 35, 40, 38 and 37) by surface plasmon resonance (SPR), using ^PaPBP3 coated on a CM5 chip as the ligand. The sensorgrams (Figure A1C and Figure A2C) indicated fast association and dissociation with all compounds tested. Dissociation constants (Kd) were determined via steady-state analysis using the maximum resonance signal obtained with a range of analyte concentrations.
SPR experiments were performed at 25 °C by using a Biacore T200 instrument from Cytiva (Marlborough, MA, USA). Purified ^PaPBP3 was coated on a CM5 chip, that was activated with EDC/NHS (1-ethyl-3-(3-dimethylaminopropyl) carbodiimide/N-hydroxysuccinimide) beforehand and blocked with ethanolamine after protein attachment. We achieved a protein amount of 11.820 RU. For every analyte, two concentration series between 3.25 µM and 200 µM were prepared in the running buffer (13 mM NaCl, 257 µM KCl, 171 µM KH2PO4, 950 µM Na2HPO4, 0.05% Tween-20 and 5% DMSO, pH 7.4) in a 96 well plate. Prior to the injection, the baseline was determined using running buffer for 300 s. Then, the analytes were then associated for 100 s and dissociated for 300 s with a flow rate of 30 µL/min. A 30 s washing step with 50% DMSO was used after every injection to regenerate the chip. In the final step, ten different DMSO concentrations ranging from 4.0% to 5.8% were used as the internal solvent correction. Steady state analysis was performed by using the internal Biacore software and figures were prepared with Prism v.8 using the points of one concentration series, respectively.

T2 sequence (G3XD46 40-563): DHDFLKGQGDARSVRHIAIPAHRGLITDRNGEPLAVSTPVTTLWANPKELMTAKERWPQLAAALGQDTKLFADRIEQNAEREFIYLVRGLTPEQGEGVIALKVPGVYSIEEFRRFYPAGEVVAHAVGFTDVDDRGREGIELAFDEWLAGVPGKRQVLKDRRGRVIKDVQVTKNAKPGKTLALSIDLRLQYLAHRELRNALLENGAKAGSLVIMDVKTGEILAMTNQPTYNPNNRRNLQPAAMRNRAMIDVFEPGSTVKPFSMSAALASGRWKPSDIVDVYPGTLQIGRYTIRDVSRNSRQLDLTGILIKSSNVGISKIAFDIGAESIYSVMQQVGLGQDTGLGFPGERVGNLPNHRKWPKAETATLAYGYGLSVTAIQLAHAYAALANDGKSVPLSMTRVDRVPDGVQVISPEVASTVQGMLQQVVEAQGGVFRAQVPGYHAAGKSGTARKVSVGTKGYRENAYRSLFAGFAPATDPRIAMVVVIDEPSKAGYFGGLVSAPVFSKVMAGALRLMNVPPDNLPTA
T1 sequence (G3XD46 40-563): as above

| Structure (SMILES) | IC50 [1] | MIC (µM) against P. aeruginosa K28926 [2] [µM] | MIC [3] [µM] | MIC (µM) A. baumanii ATCC15308 [4] [µM] | MIC ([5]; Table S3) [µM] | MIC (µM) against P. aeruginosa PAO1 [6] [µM] | Kd [7] | MIC [5] [µM] | Kd (µM) SPR [7] |
| --- | --- | --- | --- | --- | --- | --- | --- | --- | --- |
| O=C(C1=C(O)C(=O)N(Cc2cccc(F)c2)C1c1ccc(Cl)cc1)c1ccc(Br)cc1 (stereo not shown) [Compound 1] | 7 ± 3 µM | 12.5 (≈ 6.26 µg/mL) | > 100 | > 100 | 25 (≈ 12.5 µg/mL) |  |  |  |  |
| O=C1NC(c2ccc(Cl)cc2)C(C(=O)c2ccc(Br)cc2)=C1O (stereo not shown) [Compound 32, 4-(4-bromobenzoyl)-5-(4-chlorophenyl)-3-hydroxy-1,5-dihydropyrrol-2-one] | > 100 µM | >100 | > 100 | > 100 | > 100 | >100 |  |  |  |
| CCN1C(=O)C(O)=C(C(=O)c2ccc(Br)cc2)C1c1ccc(Cl)cc1 (stereo not shown) [Compound 33] | > 100 µM | >100 | > 100 | > 100 | 50 (≈ 21 µg/mL) | >100 |  |  |  |
| O=C(C1=C(O)C(=O)N(Cc2cc3ccccc3[nH]2)C1c1ccc(Cl)cc1)c1ccc(Br)cc1 (stereo not shown) [Compound 34, 4-(4-bromobenzoyl)-5-(4-chlorophenyl)-3-hydroxy-1-(1H-indol-2-ylmethyl)-5H-pyrrol-2-one] | 4 ± 4 µM |  | > 100 | > 100 |  |  | 6.4 µM and 6.44 µM | 12.5 (≈ 6.52 µg/mL) |  |
| O=C(C1=C(O)C(=O)N(Cc2cc3cc(Cl)ccc3[nH]2)C1c1ccc(Cl)cc1)c1ccc(Br)cc1 (stereo not shown) [Compound 35] | 2 µM and 0.6 µM |  | > 100 | > 100 | 6.25 (≈ 3.48 µg/mL) |  | 9.8 µM and 9.82 µM |  |  |
| O=C(C1=C(O)C(=O)N(Cc2cc3cnccc3[nH]2)C1c1ccc(Cl)cc1)c1ccc(Br)cc1 (stereo not shown) [Compound 36] | > 100 µM | 100 (≈ 52.3 µg/mL) | > 100 | > 100 | > 100 | >100 |  |  |  |
| O=C(C1=C(O)C(=O)N(CCc2cc3ccccc3[nH]2)C1c1ccc(Cl)cc1)c1ccc(Br)cc1 (stereo not shown) [Compound 37] | 17 ± 3 µM |  | > 100 | > 100 | 50 (≈ 26.8 µg/mL) |  | 454 µM |  | too high to conclude a specific binding |
| O=C(C1=C(O)C(=O)N(Cc2nc3ccccc3[nH]2)C1c1ccc(Cl)cc1)c1ccc(Br)cc1 (stereo not shown) [Compound 38] | 117 ± 4 µM | >100 | > 100 | > 100 | 25 (≈ 13.1 µg/mL) | >100 | 62.7 µM |  |  |
| O=C(C1=C(O)C(=O)N(CCc2c[nH]c3ccccc23)C1c1ccc(Cl)cc1)c1ccc(Br)cc1 (stereo not shown) [Compound 40] | 4 ± 2 µM |  | > 100 | > 100 | 12.5 (≈ 6.7 µg/mL) |  | 22.9 µM |  |  |
| O=C(C1=C(O)C(=O)N(Cc2ccco2)C1c1ccc(Cl)cc1)c1ccc(Br)cc1 (stereo not shown) [Compound 41, 4-(4-bromobenzoyl)-5-(4-chlorophenyl)-1-(furan-2-ylmethyl)-3-hydroxy-5H-pyrrol-2-one] | > 100 µM | 25 (≈ 11.8 µg/mL) | > 100 | > 100 | 50 (≈ 23.6 µg/mL) |  |  |  |  |
| O=C(C1=C(O)C(=O)N(Cc2cscn2)C1c1ccc(Cl)cc1)c1ccc(Br)cc1 (stereo not shown) [Compound 42] | > 100 µM | >100 | > 100 | > 100 | > 100 | >100 |  |  |  |
| CCNC1=C(C(=O)c2ccc(Br)cc2)C(c2ccc(Cl)cc2)N(Cc2cccc(F)c2)C1=O (stereo not shown) [Compound 43, 4-(4-bromobenzoyl)-5-(4-chlorophenyl)-3-(ethylamino)-1-[(3-fluorophenyl)methyl]-5H-pyrrol-2-one] | > 100 µM | >100 |  | > 100 | > 100 | >100 |  |  |  |
| O=C(C1=C(N2CCOCC2)C(=O)N(Cc2cccc(F)c2)C1c1ccc(Cl)cc1)c1ccc(Br)cc1 (stereo not shown) [Compound 44, 4-(4-bromobenzoyl)-5-(4-chlorophenyl)-1-[(3-fluorophenyl)methyl]-3-(morpholin-4-yl)-5H-pyrrol-2-one] | > 100 µM | >100 | > 100 | > 100 | > 100 | >100 |  |  |  |
| CCNC1=C(C(=O)c2ccc(Br)cc2)C(c2ccc(Cl)cc2)N(Cc2c[nH]c3ccccc23)C1=O (stereo not shown) [Compound 45] | > 100 µM | >100 | > 100 | > 100 | 25 (≈ 13.7 µg/mL) | >100 |  |  |  |
